Test: Lipophilicity, log P of the compound
Type: physicochemical
Settings: octanol/water

Compound | logP (read-out: logP) | logP
CC(Cl)/C=C/C(=O)N(Cc1ccc(Cl)cc1)CC(C)C (configuration not stated) | 4.68 | 
CC(C)Oc1cc(-n2nc(C(C)(C)C)oc2=O)c(Cl)cc1Cl [OXADIAZON] |  | 4.78
